Assays:
MCF7 = experiment: Breast Cancer Cell Proliferation Assay (MCF-7); format: cell-based; conditions: Homo sapiens, 120 h; MCF7 cells, 5 days of compound exposure, Cell Titer-Glo
Procedure: Breast Cancer Cell Proliferation Assay (MCF-7)
MCF7 was expanded and maintained in the medium (Phenol red free DMEM/F12 (Hyclone SH30272.01) NEAA (Gibco11140-050) Na-pyruvate (Gibco 11360-070) and Re-stripped Charcoal stripped FBS (Gemini 100-119)). The cells were adjusted to a concentration of 3,000 cells per mL in the above media, and the cells were incubated (37° C., 5% CO2). The following day a 10 point, serial dilution of compounds was added to the cells at a final concentration ranging from 10-0.000005 μM for test compounds (17β-estradiol was used as a control). Additional cells were plated in 30 wells to serve as the day 1 (pretreatment) comparison. After 5 days of compound exposure, Cell Titer-Glo reagent was added to the cells and the relative luminescence units (RLUs) of each well was determined. Cell Titer-Glo was also added to 32 μL of medium without cells to obtain a background value. The plates were allowed to incubate at room temperature for 10 minutes to stabilize luminescent signal and the luminescence signal was recorded with EnSpire. The relative increase in cell number of each sample is determined as follows: (RLU sample-RLU background/RLU estrogen only treated cells-RLU background)×100=% inhibition.

[1] = Pharmacokinetic Determination (Rat PK); format: in vivo; conditions: plasma, female SD rats; for Vd: read-out: Vdss; for bioavailability: PO 10.0 mg/kg vs IV 3.0 mg/kg
Procedure: Example D Pharmacokinetic Determination
Grouping female SD rats weighing 200-300 g randomly to two groups; one group was administered with test compound at a dose of 3.0 mg/kg by intravenous injection, the other group was administered with test compound at a dose of 10.0 mg/kg by oral. The formulation for IV groups is DMSO/PEG400/150 mM glycine (pH 9) (5/10/85) and the formulation for PO groups is PEG400/PVP/Tween 80/0.5% CMC in water (9/0.5/0.5/90). After administering, blood samples of intravenous injection group were collected at time points of predose, 0.0833, 0.25, 0.5, 1, 2, 4, 8, 12 and 24 h; blood samples of oral group were collected at time points of predose, 0.25, 0.5, 1, 2, 4, 8, 12, and 24 h. Standard curve was plotted based on concentrations of the samples in a suitable range, the concentrations of test compounds in plasma samples were determined by using LC-MS/MS. Pharmacokinetic parameters were calculated according to drug concentration-time curve using a noncompartmental method by WinNonLin (Phoenix™, version 6.1) or other similar software.

ERα = target: T1, ERα (Homo sapiens, UniProt P03372); experiment: ER Degradation Determination by Western Blot; format: cell-based; conditions: MCF-7 cells, 10 μM, 18-24 hours
T1 construct: endogenous in cells; host or cells: MCF-7
T1 sequence (P03372 1-595): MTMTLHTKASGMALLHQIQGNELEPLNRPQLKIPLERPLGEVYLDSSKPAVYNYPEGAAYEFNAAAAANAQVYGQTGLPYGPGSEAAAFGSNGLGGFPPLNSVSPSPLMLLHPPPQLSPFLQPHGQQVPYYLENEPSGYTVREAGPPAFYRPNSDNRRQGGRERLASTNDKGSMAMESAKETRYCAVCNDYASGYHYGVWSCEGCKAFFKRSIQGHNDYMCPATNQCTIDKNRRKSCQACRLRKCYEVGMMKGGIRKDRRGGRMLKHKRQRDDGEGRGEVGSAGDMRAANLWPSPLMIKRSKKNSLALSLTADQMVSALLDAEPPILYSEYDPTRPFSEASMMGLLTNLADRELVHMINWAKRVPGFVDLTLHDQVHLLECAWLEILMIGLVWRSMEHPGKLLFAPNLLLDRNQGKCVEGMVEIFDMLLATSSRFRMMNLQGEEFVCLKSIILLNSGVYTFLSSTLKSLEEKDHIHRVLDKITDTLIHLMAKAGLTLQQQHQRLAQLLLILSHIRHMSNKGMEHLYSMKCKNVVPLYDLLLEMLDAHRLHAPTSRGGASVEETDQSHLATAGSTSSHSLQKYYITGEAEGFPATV
Procedure: ER Degradation Determination by Western Blot
MCF-7 cells are plated at 0.3 million cells/mL (3 mL/well) in 6-well plates in experiment media and incubated at 37° C., 5% CO2 for […]. Next day, 10× solution of compounds are made in DMSO and added the solution to the cells to achieve a final concentration of 10 μM. A DMSO control is included to enable a determination of the relative efficacy of test compounds. Fulvestrant is used as a positive control for ER-alpha degradation, and 4-OH tamoxifen as a control for receptor stabilization. After incubating cells with compounds for 18-24 hours, cell lysates are prepared (2× Cell lysis buffer:100 mM Tris, pH 8, 300 mM NaCl, 2% NP40, 1% Na deoxycholate, 0.04% SDS, 2 mM EDTA) and mixed thoroughly and incubated on ice. The protein concentration is quantified using BCA kit. […] The gel was then transferred onto a nitrocellulose membrane. […] GAPDH protein was used as an internal control.

Row | SMILES | IC50 (MCF7) [nM] | AUC(0-inf) ([1]; IV, 3.0 mg/kg) [µM·h] | clearance ([1]; IV, 3.0 mg/kg) [mL/min/kg] | half-life ([1]; IV, 3.0 mg/kg) [min] | Vd ([1]; IV, 3.0 mg/kg) [L/kg] | bioavailability [1] [%] | AUC(0-inf) ([1]; PO, 10.0 mg/kg) [µM·h] | Cmax ([1]; PO, 10.0 mg/kg) [µM] | Tmax ([1]; PO, 10.0 mg/kg) [h] | half-life ([1]; PO, 10.0 mg/kg) [min] | ERα % degradation (ERα) | melting point [°C]
1 | C[C@@H]1Cc2c([nH]c3ccccc23)[C@@H](c2c(F)cc(/C=C/C(=O)O)cc2F)N1CC(C)(C)F [AZD9496, (E)-3-(3,5-Difluoro-4-((1R,3R)2-(2-fluoro-2-methylpropyl)-3-methyl-2,3,4,9-tetrahydro-1H-pyrido[3,4b]indol-1-yl)phenyl)acrylic acid, reference compound] | ≤ 25 | 72 | 1.6 | 468 | 0.8 | 74 | 179 | 16.1 | 4 | 384 | A (A = ERα % degradation ≥80%) | 
2 | C[C@@H]1Cc2c([nH]c3ccccc23)[C@@H](c2c(F)cc(/C=C/C(=O)O)cc2F)N1CC12CC(C1)C2 [Example 5A, (E)-3-(4-((1R,3R)-2-(Bicyclo[1.1.1]pentan-1-ylmethyl)-3-methyl-2,3,4,9-tetrahydro-1H-pyrido[3,4-b]indol-1-yl)-3,5-difluorophenyl)acrylic acid] | ≤ 25 | 67 | 1.7 | 462 | 1 | 82 | 185 | 10.8 | 2 | 510 | A (A = ERα % degradation ≥80%) | 
3 | C[C@@H]1Cc2c([nH]c3ccccc23)[C@@H](c2c(F)cc(/C=C/C(=O)O)cc2F)N1[C@H]1CCOC1 [Example 8A, (E)-3-(3,5-Difluoro-4-((1R,3R)-3-methyl-2-((S)-tetrahydrofuran-3-yl)-2,3,4,9-tetrahydro-1H-pyrido[3,4-b]indol-1-yl)phenyl)acrylic acid] | 25 to 250 | 22 | 5.2 | 192 | 0.6 | 109 | 80 | 24.5 | 0.5 | 126 | A (A = ERα % degradation ≥80%) | 
4 | C[C@@H]1Cc2c([nH]c3ccccc23)[C@@H](c2c(F)cc(/C=C/C(=O)O)cc2F)N1C12CC(C1)C2 [Example 11A, (E)-3-(4-((1R,3R)-2-(Bicyclo[1.1.1]pentan-1-yl)-3-methyl-2,3,4,9-tetrahydro-1H-pyrido[3,4-b]indol-1-yl)-3,5-difluorophenyl)acrylic acid] | ≤ 25 | 96 | 1.2 | 252 | 0.48 | 88 | 283 | 33 |  | 210 | A (A = ERα % degradation ≥80%) | 
5 | C[C@@H]1Cc2c([nH]c3ccccc23)[C@@H](c2c(F)cc(/C=C/C(=O)O)cc2F)N1CC12CC(F)(C1)C2 [Example 14A, (E)-3-(3,5-Difluoro-4-((1R,3R)-2-((3-fluorobicyclo[1.1.1]pentan-1-yl)methyl)-3-methyl-2,3,4,9-tetrahydro-H-pyrido[3,4-b]indol-1-yl)phenyl)acrylic acid] | 25 to 250 |  |  |  |  |  |  |  |  |  | B (B = ERα % degradation <80%) | 
6 | C[C@@H]1Cc2c([nH]c3ccc(F)cc23)[C@@H](c2c(F)cc(/C=C/C(=O)O)cc2F)N1CC(C)(C)F [Example 21A, (E)-3-(3,5-Difluoro-4-((1R,3R)-6-fluoro-2-(2-fluoro-2-methylpropyl)-3-methyl-2,3,4,9-tetrahydro-1H-pyrido[3,4-b]indol-1-yl)phenyl)acrylic acid] | ≤ 25 |  |  |  |  |  |  |  |  |  |  | 128 to 130
7 | C[C@]12CC[C@@H]3c4ccc(O)cc4C[C@@H](CCCCCCCCC[S+]([O-])CCCC(F)(F)C(F)(F)F)[C@H]3[C@@H]1CC[C@@H]2O (stereo partly shown) [fulvestrant, reference compound] | ≤ 25 |  |  |  |  |  |  |  |  |  | A (A = ERα % degradation ≥80%) | 
